US9845322B2 (Hoffmann-La Roche Inc., priority 2016, dated 2017)
Where two headings read alike, the source gives them in different places.

Tests used:
[1] = system: HBsAg secretion in HepG2.2.15 cells; assay: HBsAg assay (chemiluminescence immunoassay of secreted HBsAg in culture supernatant); assay type: cell-based, HBV; conditions: concentration at which HBsAg secretion was reduced by 50% compared to the no drug control, read-out: IC50 (HBsAg assay)
Method in brief: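 IC50 taken from dose-response curves as the concentration halving secreted HBsAg relative to DMSO control. Measured by chemiluminescence immunoassay of culture supernatant from constitutively HBV-expressing HepG2.2.15 cells, seeded at 1.5×10^4/well in duplicate and exposed to three-fold serial compound dilutions at 1% final DMSO.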

[2] = system: HBV DNA production in HepG2.2.15 cells; assay: HBV DNA assay (real-time qPCR/TaqMan of extracellular HBV DNA in cell supernatant); assay type: cell-based; conditions: Hepatitis B virus, 144 h, extracellular HBV DNA copy number, six days after initial administration, read-out: IC50 (Anti HBV DNA production activity)
Description: HepG2.2.15 cells (Acs et al. Proc Natl Acad Sci USA, 84, (1987), 4641-4), a constitutively HBV-expressing cell line were cultured in DMEM+Glutamax-I medium (Invitrogen, Carlsbad, Calif., USA), supplemented with 10% fetal bovine serum (Invitrogen) and G418 (Invitrogen) at a final concentration of 200 mg/L and maintained in 5% CO2 at 37° C.
The assay employs real-time qPCR (TaqMan) to directly measure extracellular HBV DNA copy number in the cell supernatant. HepG2.2.15 cells were plated in 96-well microtiter plates before treatment with complete medium (DMEM, Glutamax, 10% FBS, 1% Penicillin/Streptomycin, 250 μg/mL Genetycin, final DMSO concentration is 1%). Only the interior wells were utilized to reduce “edge effects” observed during cell culture, the exterior wells were filled with complete medium to help minimize sample evaporation. The HepG2.2.15 cells were treated 1 h later with various concentrations of a test compound in duplicate (top concentration used at 5 μM, 2 μM or 0.5 μM according to the HBsAg IC50 observed, with ⅓ successive dilutions (total of 10 dilutions). Six days following the initial administration of the test compound, the cell culture supernatant was collected; DNA extraction was performed by automated system (Magnapure) and then used in a real-time qPCR/TaqMan assay to determine HBV DNA copy numbers. Antiviral activity was calculated from the reduction in HBV DNA levels (IC50). The compounds of the present invention were tested for their capacity to inhibit HBV DNA as described herein.

[3] = Hepatitis B virus, HepG2.2.15, HepG2.2.15 cells

Row | Structure (SMILES) | IC50 ([1]; HepG2.2.15 cells) [nM] | IC50 [2] [nM] | IC50 [1, 3] [nM]
1 | COc1cc(N2CCc3nc(-c4ncccn4)ncc3C2C)cc(F)c1F (single isomer, unassigned; (-)) [Example 17, (−)-6-(3,4-difluoro-5-methoxy-phenyl)-5-methyl-2-pyrimidin-2-yl-7,8-dihydro-5H-pyrido[4,3-d]pyrimidine] | 8 | 2 | –
2 | COc1cc(N2CCc3nc(-c4ncccn4)ncc3C2C)cc(Cl)c1F (single isomer, unassigned; (-)) [Example 43, (−)-6-(3-chloro-4-fluoro-5-methoxy-phenyl)-5-methyl-2-pyrimidin-2-yl-7,8-dihydro-5H-pyrido[4,3-d]pyrimidine] | 18 | 8 | –
3 | COc1cc(F)cc(N2CCc3nc(-c4ncccn4)ncc3C2C)c1 (single isomer, unassigned; (-)) [Example 73, (−)-6-(3-fluoro-5-methoxy-phenyl)-5-methyl-2-pyrimidin-2-yl-7,8-dihydro-5H-pyrido[4,3-d]pyrimidine] | 18 | 5 | –
4 | CC1c2cnc(-c3ncccn3)nc2CCN1c1cc(OCCCCCC(N)=O)cc(F)n1 (single isomer, unassigned; (-)) [Example 165, (−)-6-[[2-fluoro-6-[5-methyl-2-pyrimidin-2-yl-7,8-dihydro-5H-pyrido[4,3-d]pyrimidin-6-yl]-4-pyridyl]oxy]hexanamide] | – | < 1 | 13
5 | CC1c2cnc(-c3ncccn3)nc2CCN1c1cc(N2CCCC2)cc(F)n1 (single isomer, unassigned; (-)) [Example 200, (−)-6-(6-fluoro-4-pyrrolidin-1-yl-2-pyridyl)-5-methyl-2-pyrimidin-2-yl-7,8-dihydro-5H-pyrido[4,3-d]pyrimidine] | 2 | < 1 | –
6 | CNc1cc(F)nc(N2CCc3nc(-c4ncccn4)ncc3C2C)c1 (single isomer, unassigned; (-)) [Example 203, (−)-2-fluoro-N-methyl-6-[5-methyl-2-pyrimidin-2-yl-7,8-dihydro-5H-pyrido[4,3-d]pyrimidin-6-yl]pyridin-4-amine] | – | 0.16 | 6
7 | CC1c2cnc(-c3ncccn3)nc2CCN1c1cc(N(C)C)cc(F)n1 (single isomer, unassigned; (-)) [Example 207, (−)-2-fluoro-N,N-dimethyl-6-[5-methyl-2-pyrimidin-2-yl-7,8-dihydro-5H-pyrido[4,3-d]pyrimidin-6-yl]pyridin-4-amine] | 2 | 0.34 | –
8 | CC1c2cnc(-c3ncccn3)nc2CCN1c1cc(F)c(F)c(OCCCCC(N)=O)c1 (stereo not shown) [Example 64, 5-[2,3-difluoro-5-(5-methyl-2-pyrimidin-2-yl-7,8-dihydro-5H-pyrido[4,3-d]pyrimidin-6-yl)phenoxy]pentanamide] | – | 4 | 62
9 | CC1c2cnc(-c3ncccn3)nc2CCN1c1cc(F)c(F)c(OCCCCCCC(=O)O)c1 (stereo not shown) [Example 86, 7-[2,3-difluoro-5-(5-methyl-2-pyrimidin-2-yl-7,8-dihydro-5H-pyrido[4,3-d]pyrimidin-6-yl)phenoxy]heptanoic acid] | – | 1 | 100
10 | CC1c2cnc(-c3ncccn3)nc2CCN1c1cc(F)c(F)c(OCCCCCCC(N)=O)c1 (stereo not shown) [Example 87, 7-[2,3-difluoro-5-(5-methyl-2-pyrimidin-2-yl-7,8-dihydro-5H-pyrido[4,3-d]pyrimidin-6-yl)phenoxy]heptanamide] | – | 10 | 73
11 | CC1c2cnc(-c3ncccn3)nc2CCN1c1cc(OCC(F)F)cc(F)n1 (stereo not shown) [Example 149, 6-[4-(2,2-difluoroethoxy)-6-fluoro-2-pyridyl]-5-methyl-2-pyrimidin-2-yl-7,8-dihydro-5H-pyrido[4,3-d]pyrimidine] | – | 1 | 10
12 | CC1c2cnc(-c3ncccn3)nc2CCN1c1cc(F)cc(N2CCNCC2)n1 (stereo not shown) [Example 209, 6-(4-fluoro-6-piperazin-1-yl-2-pyridyl)-5-methyl-2-pyrimidin-2-yl-7,8-dihydro-5H-pyrido[4,3-d]pyrimidine] | – | – | 649
13 | CC1c2cnc(-c3ncccn3)nc2CCN1c1cc(N)cc(F)n1 (stereo not shown) [Example 210, 2-fluoro-6-(5-methyl-2-pyrimidin-2-yl-7,8-dihydro-5H-pyrido[4,3-d]pyrimidin-6-yl)pyridin-4-amine] | – | – | 65
14 | CC1c2cnc(-c3ncccn3)nc2CCN1c1cc(NS(C)(=O)=O)cc(F)n1 (stereo not shown) [Example 211, N-[2-fluoro-6-(5-methyl-2-pyrimidin-2-yl-7,8-dihydro-5H-pyrido[4,3-d]pyrimidin-6-yl)-4-pyridyl]methanesulfonamide] | – | – | 270
15 | CC1c2cnc(-c3ncccn3)nc2CCN1c1cc(F)cc(NS(C)(=O)=O)n1 (stereo not shown) [Example 212, N-[4-fluoro-6-(5-methyl-2-pyrimidin-2-yl-7,8-dihydro-5H-pyrido[4,3-d]pyrimidin-6-yl)-2-pyridyl]methanesulfonamide] | – | – | 837
16 | Cc1cc(N(C)C)nc(N2CCc3nc(-c4ncccn4)ncc3[C@H]2C)n1 [Example 213, (−)-N,N,6-trimethyl-2-[5-methyl-2-pyrimidin-2-yl-7,8-dihydro-5H-pyrido[4,3-d]pyrimidin-6-yl]pyrimidin-4-amine] | – | – | 65
17 | CC1c2cnc(-c3ncccn3)nc2CCN1c1cc(F)cc(N2CCNC(=O)C2)n1 (stereo not shown) [Example 214, 4-[4-fluoro-6-(5-methyl-2-pyrimidin-2-yl-7,8-dihydro-5H-pyrido[4,3-d]pyrimidin-6-yl)-2-pyridyl]piperazin-2-one] | – | 7.2 | 22
18 | CC1c2cnc(-c3ncccn3)nc2CCN1c1cc(N2CCNC(=O)C2)cc(F)n1 (stereo not shown) [Example 215, 4-[2-fluoro-6-(5-methyl-2-pyrimidin-2-yl-7,8-dihydro-5H-pyrido[4,3-d]pyrimidin-6-yl)-4-pyridyl]piperazin-2-one] | – | 0.81 | 64
19 | CC1c2cnc(-c3ccccn3)nc2CCN1c1cc(N(C)C)cc(F)n1 (stereo not shown) [Example 216, 2-fluoro-N,N-dimethyl-6-[5-methyl-2-(2-pyridyl)-7,8-dihydro-5H-pyrido[4,3-d]pyrimidin-6-yl]pyridin-4-amine] | – | – | 13
20 | CC1c2cnc(-c3ccccn3)nc2CCN1c1cc(F)cc(N(C)C)n1 (stereo not shown) [Example 217, 4-fluoro-N,N-dimethyl-6-[5-methyl-2-(2-pyridyl)-7,8-dihydro-5H-pyrido[4,3-d]pyrimidin-6-yl]pyridin-2-amine] | – | – | 28
21 | CC1c2cnc(-c3ccccn3)nc2CCN1c1cc(N2CCCCC2)cc(F)n1 (stereo not shown) [Example 218, 6-(6-fluoro-4-(piperidin-1-yl)pyridin-2-yl)-5-methyl-2-(pyridin-2-yl)-5,6,7,8-tetrahydropyrido[4,3-d]pyrimidine] | – | – | 22
22 | CC1c2cnc(-c3ccccn3)nc2CCN1c1cc(F)cc(N2CCCCC2)n1 (stereo not shown) [Example 219, 6-[4-fluoro-6-(1-piperidyl)-2-pyridyl]-5-methyl-2-(2-pyridyl)-7,8-dihydro-5H-pyrido[4,3-d]pyrimidine] | – | – | 110
23 | CC1c2cnc(-c3ccccn3)nc2CCN1c1cc(N2CCOCC2)cc(F)n1 (stereo not shown) [Example 220, 4-[2-fluoro-6-[5-methyl-2-(2-pyridyl)-7,8-dihydro-5H-pyrido[4,3-d]pyrimidin-6-yl]-4-pyridyl]morpholine] | – | – | 21
24 | CC1c2cnc(-c3ccccn3)nc2CCN1c1cc(F)cc(N2CCOCC2)n1 (stereo not shown) [Example 221, 4-[4-fluoro-6-[5-methyl-2-(2-pyridyl)-7,8-dihydro-5H-pyrido[4,3-d]pyrimidin-6-yl]-2-pyridyl]morpholine] | – | – | 34
25 | CC1c2cnc(-c3ccccn3)nc2CCN1c1cc(N2CCNC(=O)C2)cc(F)n1 (stereo not shown) [Example 222, 4-[2-fluoro-6-[5-methyl-2-(2-pyridyl)-7,8-dihydro-5H-pyrido[4,3-d]pyrimidin-6-yl]-4-pyridyl]piperazin-2-one] | – | – | 16
26 | CC1c2cnc(-c3ccccn3)nc2CCN1c1cc(F)cc(N2CCNC(=O)C2)n1 (stereo not shown) [Example 223, 4-[4-fluoro-6-[5-methyl-2-(2-pyridyl)-7,8-dihydro-5H-pyrido[4,3-d]pyrimidin-6-yl]-2-pyridyl]piperazin-2-one] | – | – | 15
27 | CC1c2cnc(-c3ccccn3)nc2CCN1c1cc(N2CCCC2)cc(F)n1 (stereo not shown) [Example 224, 6-(6-fluoro-4-pyrrolidin-1-yl-2-pyridyl)-5-methyl-2-(2-pyridyl)-7,8-dihydro-5H-pyrido[4,3-d]pyrimidine] | – | – | 13
